# ± gives the expanded uncertainty stated by the source.
# Columns and labels:
# [1] = Crystal; DTA
# [2] = Molar enthalpy of transition or fusion; settings: Crystal; DSC
Compound,Normal melting temperature [1] [°C],Molar enthalpy of transition or fusion [2] [kcal/mol]
"Clc1ccccc1Cl [1,2-dichlorobenzene]",-17.30 ± 0.5,3.13 ± 0.0789
"Clc1cccc(Cl)c1 [1,3-dichlorobenzene]",-24.90 ± 0.5,2.99 ± 0.0765
"Clc1ccc(Cl)cc1 [1,4-dichlorobenzene]",53.00 ± 0.5,4.32 ± 0.103
c1ccc2c(c1)ccc1ccccc12 [phenanthrene],98.90 ± 0.5,3.99 ± 0.0956
